Assay [1] concerns the target T1, MAGL (Mus musculus, UniProt O35678).
T1 sequence (O35678 1-303): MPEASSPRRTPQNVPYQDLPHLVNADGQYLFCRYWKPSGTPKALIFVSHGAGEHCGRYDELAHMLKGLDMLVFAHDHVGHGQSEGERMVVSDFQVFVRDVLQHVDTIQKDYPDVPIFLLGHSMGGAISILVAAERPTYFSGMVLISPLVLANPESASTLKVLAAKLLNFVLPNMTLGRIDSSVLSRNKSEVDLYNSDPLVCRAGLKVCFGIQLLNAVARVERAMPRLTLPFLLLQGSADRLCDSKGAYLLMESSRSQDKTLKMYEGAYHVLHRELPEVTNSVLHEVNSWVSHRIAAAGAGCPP
As to the kind of experiment: biochemical. As to conditions: mouse; in vitro competitive ABPP; read-out: Mouse (IC50 value, nM) MAGL.

Assay [2] concerns the target T2, ABHD6 (Mus musculus, UniProt Q8R2Y0).
T2 sequence (Q8R2Y0 1-336): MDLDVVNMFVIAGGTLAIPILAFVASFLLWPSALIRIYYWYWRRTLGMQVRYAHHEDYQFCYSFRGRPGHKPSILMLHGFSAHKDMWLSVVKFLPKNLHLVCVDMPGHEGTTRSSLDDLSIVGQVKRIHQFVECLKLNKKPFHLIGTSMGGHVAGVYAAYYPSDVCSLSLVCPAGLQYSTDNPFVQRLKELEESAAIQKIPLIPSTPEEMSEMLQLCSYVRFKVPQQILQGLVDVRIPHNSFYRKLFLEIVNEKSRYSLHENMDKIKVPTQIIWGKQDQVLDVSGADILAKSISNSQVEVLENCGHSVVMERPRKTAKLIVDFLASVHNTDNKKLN
Briefly: biochemical. As to conditions: in vitro competitive ABPP.

The target of assay [3] is T1, MAGL. Briefly: In vitro competitive activity-based protein profiling (Table 2, % inhibition at 1 μM). It counts as biochemical. The following applies: read-out: % Inhibition at 1 μM MAGL. As for the experimental part: After 30 min, FP—Rh (1.0 μL, 50 μM in DMSO) was added and the mixture was incubated for another 30 min at 37° C. Reactions were quenched with SDS loading buffer (50 μL-4×) and run on SDS-PAGE.
Cell lysates were diluted with mock proteomes for use in competitive ABPP experiments.

Assay [4] has as its target T3, FAAH (Mus musculus, UniProt O08914).
T3 sequence (O08914 1-579): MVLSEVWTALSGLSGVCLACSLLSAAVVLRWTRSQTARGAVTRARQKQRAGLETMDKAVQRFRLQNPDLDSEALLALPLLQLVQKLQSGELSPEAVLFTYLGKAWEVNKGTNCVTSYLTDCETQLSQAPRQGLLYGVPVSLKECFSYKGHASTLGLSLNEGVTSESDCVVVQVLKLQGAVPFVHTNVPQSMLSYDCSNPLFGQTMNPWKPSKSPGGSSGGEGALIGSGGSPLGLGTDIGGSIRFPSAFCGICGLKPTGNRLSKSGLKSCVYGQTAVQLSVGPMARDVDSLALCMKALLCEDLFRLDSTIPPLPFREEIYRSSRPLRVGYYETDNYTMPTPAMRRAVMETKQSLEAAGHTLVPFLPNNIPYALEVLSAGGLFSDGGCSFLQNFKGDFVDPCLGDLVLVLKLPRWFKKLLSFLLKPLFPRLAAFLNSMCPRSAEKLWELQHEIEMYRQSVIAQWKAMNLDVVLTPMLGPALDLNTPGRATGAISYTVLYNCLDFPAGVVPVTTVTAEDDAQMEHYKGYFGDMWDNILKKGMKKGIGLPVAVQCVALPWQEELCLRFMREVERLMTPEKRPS
The assay is described as above. Type of assay: biochemical. The following applies: read-out: % Inhibition at 1 μM FAAH.

For assay [5], the target named is T2, ABHD6. The assay is described as above. Type of assay: biochemical. The following applies: read-out: % Inhibition at 1 μM ABHD6.
Assay [6] deals with T3, FAAH. As to the kind of experiment: biochemical. The following applies: in vitro competitive ABPP.

A word on the IC50: it is the point on the concentration scale where inhibition reaches its midpoint. What is called inhibition is the share of the control response that was lost under treatment.

In the case of `Cn1nc(-c2cccc(F)c2)cc1CN1CC2CN(C(=O)OC(C(F)(F)F)C(F)(F)F)CC2C1` (stereo not drawn) [Example 195, 1,1,1,3,3,3-hexafluoropropan-2-yl 5-((3-(3-fluorophenyl)-1-methyl-1H-pyrazol-5-yl)methyl)hexahydropyrrolo[3,4-c]pyrrole-2(1H)-carboxylate], the IC50 on MAGL [1] was below 100 nM; at ABHD6 [2] it was 100 to 1000 nM; at FAAH [6] it was 1000 to 10000 nM. In addition, the values for the inhibition at 1 µM at MAGL [3], at FAAH [4] and on ABHD6 [5] were above 75%, below 25% and 25 to 75%, respectively.

For the compound `O=C(OC(C(F)(F)F)C(F)(F)F)N1CC2CN(Cc3ccc(C(F)F)cc3N3CCCC3)CC2C1` (stereo not drawn) [Example 205, 1,1,1,3,3,3-hexafluoropropan-2-yl 5-(4-(difluoromethyl)-2-(pyrrolidin-1-yl)benzyl)hexahydropyrrolo[3,4-c]pyrrole-2(1H)-carboxylate], the IC50 at MAGL [1] is below 100 nM; on ABHD6 [2], 1000 to 10000 nM; at FAAH [6] it was 1000 to 10000 nM. In addition, the values for the inhibition at 1 µM at MAGL [3], on FAAH [4] and on ABHD6 [5] were above 75%, below 25% and below 25%, respectively.

As to `O=C(ON1C(=O)CCC1=O)N1CC2CN(Cc3ccc(N4CCOCC4)cc3Cl)CC2C1` (stereo not drawn) [Example 80, 2,5-Dioxopyrrolidin-1-yl 5-(2-chloro-4-morpholinobenzyl)hexahydropyrrolo[3,4-c]pyrrole-2(1H)-carboxylate], the figures for the half-maximal inhibitory concentration (IC50) on MAGL [1], on ABHD6 [2] and on FAAH [6] were 100 to 1000 nM, 1000 to 10000 nM and 1000 to 10000 nM, respectively. For the same compound, the inhibition at 1 µM at MAGL [3] is 25 to 75%; on FAAH [4], 25 to 75%; at ABHD6 [5], below 25%.

Regarding `O=C(OC(C(F)(F)F)C(F)(F)F)N1CC2CN(Cc3ccc(C(=O)N4CCCC4)c(OC(F)(F)F)c3)CC2C1` (stereo not drawn) [Example 193, 1,1,1,3,3,3-hexafluoropropan-2-yl 5-(4-(pyrrolidine-1-carbonyl)-3-(trifluoromethoxy)benzyl)hexahydropyrrolo[3,4-c]pyrrole-2(1H)-carboxylate], the half-maximal inhibitory concentration (IC50) at MAGL [1] is 100 to 1000 nM; on ABHD6 [2] it was 1000 to 10000 nM; at FAAH [6], above 10000 nM. For the same compound, the inhibition at 1 µM is above 75% at MAGL [3], below 25% on FAAH [4] and 25 to 75% on ABHD6 [5].

As to `CCN1CCN(c2c(C)cccc2CN2CC3CN(C(=O)OC(C(F)(F)F)C(F)(F)F)CC3C2)CC1` (stereo not drawn) [Example 148, 1,1,1,3,3,3-hexafluoropropan-2-yl 5-[[2-(4-ethylpiperazin-1-yl)-3-methylphenyl]methyl]-octahydropyrrolo[3,4-c]pyrrole-2-carboxylate], the half-maximal inhibitory concentration (IC50) on MAGL [1] was 100 to 1000 nM; at ABHD6 [2] it was 1000 to 10000 nM; on FAAH [6], above 10000 nM. Moreover, the inhibition at 1 µM on MAGL [3] was above 75%; on FAAH [4], below 25%; at ABHD6 [5], below 25%.

Turning to `O=C(OC(C(F)(F)F)C(F)(F)F)N1CC2CN(Cc3ccc(Cl)cc3N3CCn4ccnc4C3)CC2C1` (stereo not drawn) [Example 33, 1,1,1,3,3,3-Hexafluoropropan-2-yl 5-[(4-chloro-2-[5H,6H,7H,8H-imidazo[1,2-a]pyrazin-7-yl]phenyl)methyl]-octahydropyrrolo[3,4-c]pyrrole-2-carboxylate], the IC50 at MAGL [1] was below 100 nM; at ABHD6 [2], 1000 to 10000 nM; on FAAH [6], 1000 to 10000 nM. The results for the inhibition at 1 µM on MAGL [3], on FAAH [4] and at ABHD6 [5] were above 75%, 25 to 75% and 25 to 75%, respectively.

Regarding `O=C(OC(C(F)(F)F)C(F)(F)F)N1CC2CN(Cc3cc(CN4CCOCC4)cc(OC(F)(F)F)c3)CC2C1` (stereo not drawn) [Example 183, 1,1,1,3,3,3-hexafluoropropan-2-yl 5-(3-(morpholinomethyl)-5-(trifluoromethoxy)benzyl)hexahydropyrrolo[3,4-c]pyrrole-2(1H)-carboxylate], the IC50 at MAGL [1] is 100 to 1000 nM; on ABHD6 [2], 1000 to 10000 nM; on FAAH [6], 1000 to 10000 nM. Further, the inhibition at 1 µM is above 75% at MAGL [3], below 25% at FAAH [4] and below 25% on ABHD6 [5].

With `O=C(OC(C(F)(F)F)C(F)(F)F)N1CC2CN(Cc3cccc(Cl)c3N3CCC(F)(F)CC3)CC2C1` (stereo not drawn) [Example 158, 1,1,1,3,3,3-hexafluoropropan-2-yl 5-[[3-chloro-2-(4,4-difluoropiperidin-1-yl)phenyl]methyl]-octahydropyrrolo[3,4-c]pyrrole-2-carboxylate], the IC50 on MAGL [1] was 100 to 1000 nM; at ABHD6 [2], 1000 to 10000 nM; on FAAH [6], above 10000 nM. Besides, the inhibition at 1 µM on MAGL [3] is above 75%; on FAAH [4], below 25%; at ABHD6 [5], below 25%.

For the compound `Cc1c(CN2CC3CN(C(=O)OC(C(F)(F)F)C(F)(F)F)CC3C2)cccc1N1CCC2(CCOC2)C1` (stereo not drawn) [Example 46, 1,1,1,3,3,3-Hexafluoropropan-2-yl 5-[(2-methyl-3-[2-oxa-7-azaspiro[4.4]nonan-7-yl]phenyl)methyl]-octahydropyrrolo[3,4-c]pyrrole-2-carboxylate], the IC50 at MAGL [1] was below 100 nM; on ABHD6 [2], 1000 to 10000 nM; at FAAH [6], 1000 to 10000 nM. In addition, the inhibition at 1 µM on MAGL [3] was above 75%; at FAAH [4] it was 25 to 75%; at ABHD6 [5], below 25%.

Consider `O=C(OC(C(F)(F)F)C(F)(F)F)N1CC2CN(Cc3ccc(Cl)cc3N3CCC4(CCOCC4)C3)CC2C1` (stereo not drawn) [Example 31, 1,1,1,3,3,3-Hexafluoropropan-2-yl 5-[(4-chloro-2-[8-oxa-2-azaspiro[4.5]decan-2-yl]phenyl)methyl]-octahydropyrrolo[3,4-c]pyrrole-2-carboxylate], for which the IC50 at MAGL [1] was below 100 nM; on ABHD6 [2] it was 1000 to 10000 nM; on FAAH [6], 1000 to 10000 nM. Further, the inhibition at 1 µM at MAGL [3] is above 75%; at FAAH [4], below 25%; at ABHD6 [5], below 25%.

Turning to `CC(=O)NC1CCN(c2cccc(CN3CC4CN(C(=O)OC(C(F)(F)F)C(F)(F)F)CC4C3)c2C)CC1` (stereo not drawn) [Example 151, 1,1,1,3,3,3-hexafluoropropan-2-yl 5-[[3-(4-acetamidopiperidin-1-yl)-2-methylphenyl]methyl]-octahydropyrrolo[3,4-c]pyrrole-2-carboxylate], the figures for the IC50 on MAGL [1], at ABHD6 [2] and on FAAH [6] were below 100 nM, 1000 to 10000 nM and 1000 to 10000 nM, respectively. The inhibition at 1 µM was above 75% on MAGL [3], below 25% at FAAH [4] and 25 to 75% at ABHD6 [5].

`O=C(OC(C(F)(F)F)C(F)(F)F)N1CC2CN(Cc3ccc(C(F)F)cc3N3CCCCC3)CC2C1` (stereo not drawn) [Example 204, 1,1,1,3,3,3-hexafluoropropan-2-yl 5-(4-(difluoromethyl)-2-(piperidin-1-yl)benzyl)hexahydropyrrolo[3,4-c]pyrrole-2(1H)-carboxylate]: the IC50 was below 100 nM on MAGL [1], 1000 to 10000 nM on ABHD6 [2] and 1000 to 10000 nM on FAAH [6]. For the same compound, the values for the inhibition at 1 µM on MAGL [3], at FAAH [4] and on ABHD6 [5] were above 75%, below 25% and below 25%, respectively.

Regarding `CCn1ncc(CN2CC3CN(C(=O)OC(C(F)(F)F)C(F)(F)F)CC3C2)c1C(=O)NCC1CCOCC1` (stereo not drawn) [Example 181, 1,1,1,3,3,3-hexafluoropropan-2-yl 5-((1-ethyl-5-(((tetrahydro-2H-pyran-4-yl)methyl)carbamoyl)-1H-pyrazol-4-yl)methyl)hexahydropyrrolo[3,4-c]pyrrole-2(1H)-carboxylate], the 50% inhibitory concentration (IC50) on MAGL [1] was below 100 nM; on ABHD6 [2], 100 to 1000 nM; at FAAH [6], above 10000 nM. Moreover, the results for the inhibition at 1 µM on MAGL [3], at FAAH [4] and at ABHD6 [5] were above 75%, below 25% and 25 to 75%, respectively.

These data come from US9828379B2 (priority 2013, dated 2017).
